Experimental findings from the OligoGym collection are described below.

After the bases stand the sugars from the 5' end (letter, count) and the backbone: PS all phosphorothioate, else s phosphorothioate and o phosphodiester by linkage. Methylation of C is not given here. e = 2'-O-(2-methoxyethyl) (MOE); k = constrained ethyl (cEt); d = 2'-deoxy (DNA); m = 2'-O-methyl

This series deals with HSD17B13. Particulars: ASO, HepaRG.

As for TATACTTTTCCGTCTC (sugars k3 d10 k3, PS), the target mRNA inhibition reads like this: (0.02 µM) 0%; (0.078 µM) 22%; (0.313 µM) 44%; (1 µM) 71%; (1.25 µM) 79%; (5 µM) 83%.

“TATAGACTGGGTAGGA (sugars kkdddddddddkekek, PS)” displayed a target mRNA inhibition (1 µM) of 38%. As to TATATACATCAACTCC (sugars k3 d10 k3, PS), the target mRNA inhibition (1 µM) stood at 61%. On the same count and under the same terms, the result for TATATACCTGTTGCCT (sugars k3 d10 k3, PS) reads 55%. On the same count and under the same terms, the figure for “TATGAAGTTAGTATAG (sugars k3 d1 m1 d8 k3, PS)” is 27%; for TATGAAGTTAGTATAG (sugars k3 d10 k3, PS) it is 30%. “TATGTAATAGCCAGTA (sugars k3 d9 k3 e1, PS)”: the target mRNA inhibition turned out to be 23% (0.02 µM); 28% (0.078 µM); 53% (0.313 µM); 82% (1 µM); 78% (1.25 µM); 93% (5 µM). As for TATGTAATAGCCAGTA (sugars k3 d10 k3, PS), under “1 µM”, the target mRNA inhibition came to 50%. The same measure, in the same setting: the result for “TATGTGATTGAGTTCT (sugars kkdddddddddkekek, PS)” reads 23%. Where the note is “1 µM”, TATTATGAGGATCTGG (sugars k3 d10 k3, PS) displayed a target mRNA inhibition of 44%. Same read-out and setting: the result for “TATTATGTGATTGAGT (sugars k3 d9 k3 e1, PS)” reads 51%.

Consider “TATTATGTGATTGAGT (sugars kkdddddddddkekek, PS)”, for which, under “1 µM”, the target mRNA inhibition worked out at 65%.

TATTCCAGGATTTGCT (sugars k3 d10 k3, PS) showed a target mRNA inhibition (1 µM) of 43%.

Consider TATTCTCCAACTCAGG (sugars k3 d10 k3, PS), for which the target mRNA inhibition (1 µM) worked out at 54%. Consider TATTCTCTTGACAATG (sugars k3 d10 k3, PS), for which the target mRNA inhibition (1 µM) came to 47%.

For “TATTCTGTGGCATGGC (sugars k3 d9 k3 e1, PS)”, the target mRNA inhibition by setting is: (0.02 µM) 10%; (0.078 µM) 0%; (0.313 µM) 21%; (1 µM) 74%; (1.25 µM) 55%; (5 µM) 68%. On to TATTGATATACGATGG (sugars k3 d10 k3, PS), for which the target mRNA inhibition (1 µM) was found to be 16%. Under “1 µM”, TATTGTAGGGATTGAA (sugars k3 d10 k3, PS) had a target mRNA inhibition of 40%. The same measure, in the same setting: the result for TATTTAGCATTGCCTG (sugars k3 d10 k3, PS) reads 12%; that for TCAAAAAGGCCCAAGG (sugars k3 d10 k3, PS), 46%. The same measure, in the same setting: the figure for TCAAAGCCTGTTGGAT (sugars k3 d10 k3, PS) is 35%; for TCAAAGTTTTGGGACC (sugars k3 d10 k3, PS) it is 42%. Still for that read-out and setting: the result for TCACAAAGTCCCTGAC (sugars k3 d10 k3, PS) reads 11%.

As for TCACCTTATTAATATC (sugars k3 d10 k3, PS), the target mRNA inhibition (1 µM) was 0%. The sequence “TCACCTTTCATAATGT (sugars kkdddddddddkekek, PS)” came in with a target mRNA inhibition (1 µM) of 31%.

Sequence TCATAGTGGACTTCAT (sugars k3 d10 k3, PS) came in with a target mRNA inhibition (1 µM) of 36%.

Regarding TCATATCCAGTAGGTG (sugars k3 d10 k3, PS), the target mRNA inhibition (1 µM) is 32%.

As to TCATCCTTGGTGCTGA (sugars k3 d10 k3, PS), the target mRNA inhibition (1 µM) came out at 12%. Consider TCATTATAAGCTAACT (sugars k3 d10 k3, PS), for which, under “1 µM”, the target mRNA inhibition was determined as 0%.

Turning to TCCAATATATACTGAC (sugars k3 d10 k3, PS), the target mRNA inhibition (1 µM) came out at 72%. On the same count and under the same terms, the result for TCCACTTGAATTCTGT (sugars k3 d10 k3, PS) reads 32%. The same measure, in the same setting: the result for TCCACTTTTGGTGGAC (sugars k3 d10 k3, PS) reads 16%; that for TCCATAAAGCTGGATT (sugars k3 d10 k3, PS), 13%. In turn, “TCCCAACCAAACTTCC (sugars k3 d1 m1 d8 k3, PS)” showed a target mRNA inhibition (1 µM) of 43%. The same measure, in the same setting: the figure for “TCCCAACCAAACTTCC (sugars k3 d9 k3 e1, PS)” is 24%; for “TCCCAACCAAACTTCC (sugars kkdddddddddkekek, PS)” it is 27%; for TCCCCTCAAATAGCCT (sugars k3 d10 k3, PS) it is 60%. Still for that read-out and setting: the result for TCCTAGGATGTTGACC (sugars k3 d10 k3, PS) reads 0%; that for TCCTATATACATCCAA (sugars k3 d10 k3, PS), 45%. For the sequence “TCCTGTGTTAGCTTTA (sugars kkdddddddddkekek, PS)”, the target mRNA inhibition (0.02 µM) was 18%; the target mRNA inhibition (0.078 µM) turned out to be 29%; the target mRNA inhibition (0.313 µM) is 54%; the target mRNA inhibition (1 µM) is 79%; the target mRNA inhibition (1.25 µM) stood at 71%; the target mRNA inhibition (5 µM) came out at 86%. TCCTTATACTGAAGGC (sugars k3 d10 k3, PS) returned a target mRNA inhibition (1 µM) of 22%. Under “1 µM”, TCGATCCTATATACAT (sugars k3 d10 k3, PS) returned a target mRNA inhibition of 40%. The same measure, in the same setting: the result for “TCTAAGTTAGCCCCCA (sugars k3 d9 k3 e1, PS)” reads 0%; that for TCTAAGTTAGCCCCCA (sugars k3 d10 k3, PS), 36%. The sequence TCTACAAAACTGGTAT (sugars k3 d10 k3, PS) displayed a target mRNA inhibition (1 µM) of 9%. On the same count and under the same terms, the figure for TCTACATGGATCCAAC (sugars k3 d10 k3, PS) is 26%; for TCTAGAATTAAGGGCT (sugars k3 d10 k3, PS) it is 45%. Same read-out and setting: the result for TCTAGGAGATATAACA (sugars k3 d10 k3, PS) reads 48%; that for TCTATACAAAGGCAGT (sugars k3 d10 k3, PS), 53%. In the case of TCTCAGAGTTCAGGCA (sugars k3 d10 k3, PS), the target mRNA inhibition (1 µM) is 54%. Still for that read-out and setting: the result for TCTCCAATACAGGCCA (sugars k3 d10 k3, PS) reads 21%. The same measure, in the same setting: the result for TCTCTAAAGCAGGCTA (sugars k3 d10 k3, PS) reads 60%; that for TCTCTCCATCATCGAT (sugars k3 d10 k3, PS), 24%; that for “TCTCTTAGCTGTGCAC (sugars k3 d9 k3 e1, PS)”, 69%.

Under “1 µM”, “TCTCTTAGCTGTGCAC (sugars kkdddddddddkekek, PS)” came in with a target mRNA inhibition of 36%. Regarding “TCTCTTGACAATGGTT (sugars k3 d9 k3 e1, PS)”, the target mRNA inhibition amounted to 0% (0.02 µM); 23% (0.078 µM); 47% (0.313 µM); 84% (1 µM); 66% (1.25 µM); 79% (5 µM).

For TCTCTTGGGTCCATTG (sugars k3 d10 k3, PS), the target mRNA inhibition (1 µM) turned out to be 63%. Same read-out and setting: the figure for TCTGTATAGCTGCATT (sugars k3 d10 k3, PS) is 47%; for TCTGTCTCCAATACAG (sugars k3 d10 k3, PS) it is 13%.
